Here are results for 4 compounds from ChEMBL document CHEMBL1201862, “PubChem BioAssay data set” (2004).

Molecules are shown by their SMILES.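 The compound was tested at five concentrations on cells cultured in 96-well plates, with a 48-hour exposure period. GI50 marks 50% less growth.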 Active and inactive are the calls of the source. No stated cut-off is given here; in the data, active = GI50 up to about 1.1 µM and inactive = higher.

Some test systems named below: SF-268; UACC-62; HT-29; NCI-H460; ACHN; LOX IMVI; SF-295; SNB-75; Hs-578T; IGROV-1; SF-539; HL-60; NCI-H23; 786-0; SN12C; SR; BT-549; HOP-92; M14.
Holding throughout (assay): DTP human tumour cell line panel, 48 h

`COc1ccc2cc(C(=O)CCC(=O)O)ccc2c1`: the GI50 with SF-268, in the assay with UACC-62, in the assay with HT-29, in the assay with NCI-H460, in the assay with ACHN and in the assay with LOX IMVI was > 100 µM (inactive) each time. Moreover, the GI50 – broadly, the concentration at which growth is held to half of that of the control – was > 100 µM (inactive) with SF-295; 50.1 µM (inactive) in the assay on SNB-75; > 100 µM (inactive) in the assay on Hs-578T; > 100 µM (inactive) in the assay on IGROV-1; > 100 µM (inactive) in the assay on SF-539; > 100 µM (inactive) in the assay with HL-60. The GI50 in the assay on NCI-H23 is > 100 µM (inactive); in the assay on 786-0, 22.4 µM (inactive); in the assay with SN12C, > 100 µM (inactive); in the assay with SR, > 100 µM (inactive); in the assay with BT-549, > 100 µM (inactive); in the assay on HOP-92 it was > 100 µM (inactive). For the same compound, the GI50 in the assay on M14 was > 100 µM (inactive).

Consider `COC(=O)/C=C1/OC(c2ccc(C)cc2)=C(Cl)C1=O`, for which the GI50 in the assay on SF-268 is 16.4 µM (inactive); in the assay on UACC-62, 17.1 µM (inactive); in the assay with HT-29, 12.9 µM (inactive); with NCI-H460 it was 22 µM (inactive); in the assay with ACHN, 16.7 µM (inactive); with LOX IMVI, 9.2 µM (inactive). For the same compound, the GI50 is 19.8 µM (inactive) in the assay on SF-295; 16.7 µM (inactive) in the assay on SNB-75; 22.9 µM (inactive) in the assay on Hs-578T; 16.5 µM (inactive) in the assay on IGROV-1; 16.6 µM (inactive) with SF-539; 3.31 µM (inactive) with HL-60. In addition, the GI50 in the assay with NCI-H23 was 19 µM (inactive); in the assay on 786-0, 13.9 µM (inactive); in the assay on SN12C, 17.9 µM (inactive); in the assay with SR, 0.489 µM (active); in the assay on BT-549, 17.7 µM (inactive); in the assay with HOP-92 it was 15.2 µM (inactive). In the assay on M14, the GI50 was 18.1 µM (inactive).

Regarding `COC(=O)C1CC23C=CCN4CC(C2C)C2(c5ccccc5NC12)C43` (stereo unspecified), the GI50 with SF-268, with UACC-62, in the assay with HT-29, in the assay with NCI-H460, with ACHN and in the assay with LOX IMVI was > 100 µM (inactive) each time. Also, the GI50 with SF-295 was > 100 µM (inactive); with SNB-75, 87.7 µM (inactive); in the assay with Hs-578T, > 100 µM (inactive); in the assay with IGROV-1, > 100 µM (inactive); in the assay with SF-539 it was > 100 µM (inactive); in the assay with HL-60, 64 µM (inactive). Further, the GI50 with NCI-H23, in the assay on 786-0, in the assay on SN12C, with SR, in the assay on BT-549 and with HOP-92 was > 100 µM (inactive) each time. The GI50 in the assay on M14 is > 100 µM (inactive).

In the case of `CC(=O)Nc1ccc(S(=O)(=O)/N=C2\C=CC(=O)c3ccccc32)cc1`, the GI50 in the assay on SF-268 was 8.02 µM (inactive); in the assay with UACC-62, 5.51 µM (inactive); in the assay with HT-29, 13.6 µM (inactive); with NCI-H460, 12.1 µM (inactive); in the assay on ACHN it was 7.35 µM (inactive); with LOX IMVI, 2.04 µM (inactive). Moreover, the GI50 with SF-295 was 7.29 µM (inactive); in the assay with SNB-75 it was 5.4 µM (inactive); in the assay with Hs-578T it was 7.64 µM (inactive); in the assay with IGROV-1 it was 2.58 µM (inactive); with SF-539 it was 7.66 µM (inactive); in the assay on HL-60 it was 0.481 µM (active). Also, the GI50 was 4.22 µM (inactive) in the assay on NCI-H23; 9.25 µM (inactive) in the assay on 786-0; 4.92 µM (inactive) in the assay on SN12C; 2.25 µM (inactive) in the assay on SR; 12.1 µM (inactive) in the assay on BT-549; 5.07 µM (inactive) in the assay on HOP-92. For the same compound, in the assay on M14, the GI50 is 4.44 µM (inactive).
